According to the OligoGym collection:
After the bases stand the sugars from the 5' end (letter, count) and the backbone: PS all phosphorothioate, else s phosphorothioate and o phosphodiester by linkage. Methylation of C is not given here. l = locked nucleic acid (LNA); d = 2'-deoxy (DNA)

Target: SNHG14
Conditions: ASO
[1] = Mouse Primary Neuronal Cell, 0.005 µM

Sequence	target mRNA inhibition (Human Neuronal Cell, 0.2 µM) [%]	target mRNA inhibition (Human Neuronal Cell, 1 µM) [%]	target mRNA inhibition (Human Neuronal Cell, 7.5 µM) [%]	also measured
TACATCTCATACTTGC (sugars l3 d10 l3, PS)	4	-2		target mRNA inhibition (Human Neuronal Cell, 5 µM): 12%; target mRNA inhibition [1]: 97.4%
TACATCTCATACTTGCT (sugars l2 d13 l2, PS)	9	23		target mRNA inhibition (Human Neuronal Cell, 5 µM): -10%; target mRNA inhibition [1]: 84.5%
TACATTGACACCTAAT (sugars l4 d10 l2, PS)	19	17		
TACTCTGCAATACACC (sugars l1 d2 l2 d9 l2, PS)			65	
TACTCTGCAATACACC (sugars l1 d3 l1 d7 l4, PS)			63	
TACTCTGCAATACACC (sugars l2 d1 l2 d9 l2, PS)			64	
TACTCTGCAATACACC (sugars l2 d10 l4, PS)	50	55		
TACTCTGCAATACACCA (sugars l1 d3 l1 d10 l2, PS)			54	
TACTCTGCAATACACCA (sugars l2 d10 l1 d2 l2, PS)			61	
TACTCTGCAATACACCA (sugars l2 d11 l4, PS)	57	71		
TACTCTGCAATACACCA (sugars ldlddddddddddldll, PS)			64	
TAGTCCTTCCTTTAACC (sugars l2 d13 l2, PS)	20	16		
TATACCTTTCTTTAACCCTT (sugars l1 d15 l1 d1 l2, PS)			58	
TATACCTTTCTTTAACCCTT (sugars lddldlddddddddddldll, PS)			62	
TATAGCCATTCTATCT (sugars l4 d10 l2, PS)	61	67		
TATCTCATGACCACCTA (sugars l2 d12 l3, PS)	43	52		
TATCTTTCCATTTATTTCC (sugars l1 d2 l1 d13 l2, PS)			41	
TATCTTTCCATTTATTTCC (sugars l2 d12 l1 d2 l2, PS)			44	
TATTCTCAATTGCACTT (sugars l4 d11 l2, PS)	46	61		
TATTGATATTTACTCT (sugars l2 d10 l4, PS)	30	38		
TATTGATTCAATTCCCT (sugars l1 d2 l1 d10 l3, PS)			72	
TATTGATTCAATTCCCT (sugars l1 d10 l1 d2 l3, PS)			65	

Sequence	target mRNA inhibition (Human Neuronal Cell, 0.2 µM) [%]	target mRNA inhibition (Human Neuronal Cell, 1 µM) [%]	target mRNA inhibition (Human Neuronal Cell, 7.5 µM) [%]	also measured
TATTGATTCAATTCCCT (sugars l1 d12 l4, PS)			57	
TATTGATTCAATTCCCT (sugars l2 d9 l1 d2 l3, PS)			51	
TATTGATTCAATTCCCT (sugars l3 d9 l2 d1 l2, PS)			65	
TATTTGTCACCAAACC (sugars l3 d10 l3, PS)	23	-2		
TCACCTAATAGCACCA (sugars l2 d10 l4, PS)	60	69		
TCATCCCTCCAAGAAA (sugars l2 d12 l2, PS)	-16	-28		target mRNA inhibition (Human Neuronal Cell, 5 µM): -48%
TCCAAACTGTCTTCTAA (sugars l3 d12 l2, PS)	36	23		
TCCAACATAGATCCTC (sugars l2 d10 l4, PS)	52	65		
TCCAACATAGATCCTCT (sugars l2 d11 l4, PS)	45	55		
TCCATAGAATTCTTCA (sugars l4 d10 l2, PS)	51	43		
TCCATTTATTTCCATTTAT (sugars ldlldddddddddldddll, PS)			50	
TCCATTTATTTCCATTTAT (sugars llddlddddddddldldll, PS)			40	
TCCATTTATTTCCATTTATT (sugars ldlldddddddddlddddll, PS)			46	
TCCTATGTTAATACTT (sugars l3 d10 l3, PS)	14	34		
TCCTCTGCTTATAACT (sugars l3 d11 l2, PS)	51	77		
TCTCTAATCCTATTCC (sugars l4 d10 l2, PS)	53	58		
TCTGTATACACCATCCC (sugars l2 d13 l2, PS)			62	
TCTGTATACACCATCCCA (sugars lddddlddddddddldll, PS)			61	
TCTTATCCTTGAATTTC (sugars l4 d11 l2, PS)	37	33		
TCTTCAAGAATTCTCT (sugars l2 d10 l4, PS)	44	46		
TCTTCAGCTTTCTAAAT (sugars l4 d11 l2, PS)	5	24		
TCTTTAAGCTTCCCAC (sugars l2 d10 l4, PS)	34	44		

Sequence	target mRNA inhibition (Human Neuronal Cell, 0.2 µM) [%]	target mRNA inhibition (Human Neuronal Cell, 1 µM) [%]	target mRNA inhibition (Human Neuronal Cell, 7.5 µM) [%]	also measured
TCTTTCCATTTATTTCCA (sugars l4 d12 l2, PS)	53	60		
TCTTTCCATTTATTTCCAT (sugars l2 d3 l1 d11 l2, PS)			54	
TCTTTCCATTTATTTCCAT (sugars l2 d13 l1 d1 l2, PS)			42	
TCTTTCCATTTATTTCCATT (sugars l2 d3 l1 d12 l2, PS)			47	
TCTTTCCATTTATTTCCATT (sugars l2 d4 l1 d10 l3, PS)			57	
TCTTTCCATTTATTTCCATT (sugars l2 d13 l1 d2 l2, PS)			42	
TCTTTCCATTTATTTCCATT (sugars l2 d14 l1 d1 l2, PS)			46	
TGAACAACTTCTATCA (sugars l3 d10 l3, PS)	17	16		
TGTATATAACTATTCC (sugars l4 d10 l2, PS)	21	20		
TGTTTATACCCTTTCCAA (sugars l1 d1 l2 d12 l2, PS)			63	
TGTTTATACCCTTTCCAA (sugars l2 d2 l1 d11 l2, PS)			64	
TGTTTATACCCTTTCCAA (sugars ldddldddddddddldll, PS)			58	
TGTTTCCATCTACTATTA (sugars l1 d4 l1 d8 l4, PS)			67	
TGTTTCCATCTACTATTA (sugars ldldddddddddddldll, PS)			61	
TTACCTACATCTCATAC (sugars l2 d13 l2, PS)	1	-8		target mRNA inhibition (Human Neuronal Cell, 5 µM): 19%; target mRNA inhibition [1]: 79%
TTACCTACATCTCATACT (sugars l2 d12 l4, PS)	-6	-7		target mRNA inhibition (Human Neuronal Cell, 5 µM): 16%; target mRNA inhibition [1]: 95.6%
TTACTCTGCAATACAC (sugars l3 d10 l3, PS)	46	61		
TTACTCTGCAATACACC (sugars l2 d11 l4, PS)	55	57		
TTAGTATACCCTTTAT (sugars l3 d10 l3, PS)	28	20		
TTATACCTTTCTTTAACCCT (sugars ldddddddddddddldldll, PS)			58	
TTATACCTTTCTTTAACCCT (sugars ldldddldddddddddddll, PS)			64	
TTATAGCCATTCTATCT (sugars l1 d11 l2 d1 l2, PS)			40	

Sequence	target mRNA inhibition (Human Neuronal Cell, 0.2 µM) [%]	target mRNA inhibition (Human Neuronal Cell, 1 µM) [%]	target mRNA inhibition (Human Neuronal Cell, 7.5 µM) [%]	also measured
TTATAGCCATTCTATCT (sugars l2 d1 l1 d11 l2, PS)			62	
TTATAGCCATTCTATCT (sugars l2 d1 l2 d10 l2, PS)			64	
TTATAGCCATTCTATCT (sugars l2 d2 l1 d10 l2, PS)			64	
TTATAGCCATTCTATCT (sugars l3 d1 l1 d10 l2, PS)			65	
TTATAGCCATTCTATCT (sugars ldddlddddddldldll, PS)			5	
TTATAGCCATTCTATCT (sugars ldddlddddddldllll, PS)			26	
TTATAGCCATTCTATCT (sugars lddllddddddldddll, PS)			50	
TTATAGCCATTCTATCT (sugars ldldddddddddlldll, PS)			45	
TTATAGCCATTCTATCT (sugars ldlddddddddlddlll, PS)			57	
TTATAGCCATTCTATCT (sugars llddlddddddlddlll, PS)			39	
TTATAGCCATTCTATCT (sugars llddlddddddldldll, PS)			5	
TTATCATTTCATATTACT (sugars l4 d12 l2, PS)	16	34		
TTATTTATACACCATC (sugars l2 d10 l4, PS)	78	74		
TTATTTCCATTTATTTTCA (sugars ldlldddddddddlddlll, PS)			68	
TTATTTCCATTTATTTTCA (sugars llddlddddddddldldll, PS)			66	
TTCAACCCTAATCACT (sugars l4 d10 l2, PS)	39	50		
TTCACCAGTATTTCTTC (sugars l4 d11 l2, PS)	36	32		
TTCAGCTTTTAACCAGAGT (sugars l2 d14 l3, PS)			73	
TTCCATTTATTTCCATTTAT (sugars ldldddldddddddldddll, PS)			56	
TTCCATTTATTTCCATTTAT (sugars ldlddlddddddddldldll, PS)			63	
TTCTACTATACTTTCCTCT (sugars l1 d14 l1 d1 l2, PS)			50	
TTCTACTATACTTTCCTCT (sugars lddddlddddddddlddll, PS)			57	
